Results reported in patent US12139508B2, “Steroid derivative regulators, method for preparing the same, and uses thereof” (JIANGSU HANSOH PHARMACEUTICAL GROUP CO., LTD., priority 2018, dated 2024).
Where two headings read alike, the source gives them in different places.

Experiments:
GABA-A receptor = test: 35S-TBPS binding assay (GABAA receptor binding ability test); set-up: species or system Sprague-Dawley rat; conditions: rat cerebral cortex cell membrane, 5 μM GABA, 2 nM 35S-TBPS; read-out: 35S-TBPS bindng test: IC50 on inhibiting the TBPS binding activity
Outline: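 Rat (male Sprague-Dawley) cortical membranes in PBS were preincubated 5 min at 25° C with compound (from 1 μM, 3-fold, 8 points, 1% DMSO), then 5 μM GABA 5 min, then 2 nM ^35S-TBPS for 20 h at 4° C. Filter-bound counts gave % inhibition against DMSO and 10 μM P026-2 controls; IC50 by 4-parameter fit.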

[1] = Pharmacokinetic assay in Balb/c mice (plasma and brain tissue); format: in vivo; conditions: mouse, po, 5 mg/kg p.o., male Balb/c mice; for AUC(0-t): read-out: Area under curve AUC0-t; for AUC(0-inf): read-out: Area under curve AUC0-∞; for half-life: read-out: Half-life t1/2 (converted); for MRT: read-out: Mean residence time MRT; for Tmax: read-out: Peak time tmax; for Cmax: read-out: Plasma concentration Cmax
Procedure: Balb/c mice were used as test animals. The pharmacokinetic behavior in mice (plasma and brain tissue) of the compounds of Examples 2, 3, 5, 6, 9, 13, 59, 60, 61, 63, 71-74, 81, 103, 130, 134, 135, 137, 138, 140, 141, 143, 145 and 146 orally administered at a dose of 5 mg/kg was studied.
Each group had 24 male Balb/c mice. After an overnight fast, Balb/c mice were administered p.o. with the test compound at an administration dose of 5 mg/kg and an administration volume of 10 mL/kg.
0.2 ml of blood was taken from the heart before administration and at 0, 0.5, 1, 2, 4, 6, 8 and 24 hours after administration. The samples were stored in EDTA-K2 tubes, and centrifuged for 6 minutes at 4° C., 6000 rpm to separate the plasma. The plasma samples were stored at −80° C. The mice were sacrificed with CO2, and the whole brain tissue was taken out, weighed, placed in a 2 mL centrifuge tube and stored at −80° C.
1) 160 μL of acetonitrile was added to 40 μL of the plasma sample for precipitation, and then the mixture was centrifuged for 5-20 minutes at 3500×g.
2) 90 μL of acetonitrile containing the internal standard (100 ng/mL) was added to 30 μL of the plasma and brain homogenate samples for precipitation, and then the mixture was centrifuged for 8 minutes at 13000 rpm.
3) 70 μL of the treated supernatant was taken and added to 70 μL of water, and mixed by vortex for 10 minutes. 20 μL of the mixture was taken to analyze the concentration of the test compound by LC/MS/MS. LC/MS/MS analysis instrument: AB Sciex API 4000 Qtrap.
• Liquid chromatography condition: Shimadzu LC-20AD pump. • Chromatographic column: Agilent ZORBAX™ XDB-C18 (50×2.1 mm, 3.5 μm) (note: Aglient ZORBAX™ is a kind of column used in the reverse HPLC); • Mobile phase: Eluent A was 0.10% formic acid in water, and Eluent B was acetonitrile. • Flow rate: 0.4 mL/min • Elution time: 0-4.0 minutes, the eluent is as follows:
The main parameters of pharmacokinetics were calculated by WinNonlin 6.1.

C[C@@]1(O)CC[C@H]2[C@H](CC[C@@H]3[C@@H]2CC[C@@]2(C)[C@H]3[C@H](C3CC3)C[C@@H]2C(=O)Cn2nc(C#N)cc2C#N)C1 [Example 143, 1-(2-((3R,5R,8R,9R,10S,13S,14S,15S,17S)-15-Cyclopropyl-3-hydroxy-3,13-dimethylhexadecahydro-1H-cyclopenta[a]phenanthren-17-yl)-2-oxoethyl)-1H-pyrazole-3,5-dicarbonitrile]
IC50 (GABA-A receptor): 28.5 nM
AUC(0-t) ([1]; brain tissue): 8820 ng·h/mL
AUC(0-inf) ([1]; brain tissue): 9220 ng·h/mL
half-life ([1]; brain tissue): 3.95 h
MRT ([1]; brain tissue): 7.81 h
Tmax ([1]; brain tissue): 2 h
Cmax ([1]; brain tissue): 812 ng/mL
AUC(0-t) ([1]; plasma): 6290 ng·h/mL
AUC(0-inf) ([1]; plasma): 6490 ng·h/mL
half-life ([1]; plasma): 1.7 h
MRT ([1]; plasma): 3.08 h
Tmax ([1]; plasma): 0.5 h
Cmax ([1]; plasma): 1650 ng/mL

CC[C@@H]1C[C@H](C(=O)Cn2nccn2)[C@@]2(C)CC[C@H]3[C@@H](CC[C@@H]4C[C@](C)(O)CC[C@@H]43)[C@H]12 [Example 141, 1-((3R,5R,8R,9R,10S,13S,14S,15R,17S)-15-Ethyl-3-hydroxy-3,13-dimethylhexadecahydro-1H-cyclopenta[a]phenanthren-17-yl)-2-(2H-1,2,3-triazol-2-yl)ethan-1-one]
IC50 (GABA-A receptor): 23.9 nM
AUC(0-t) ([1]; brain tissue): 2150 ng·h/mL
AUC(0-inf) ([1]; brain tissue): 2250 ng·h/mL
half-life ([1]; brain tissue): 1.68 h
MRT ([1]; brain tissue): 2.68 h
Tmax ([1]; brain tissue): 0.5 h
Cmax ([1]; brain tissue): 1050 ng/mL
AUC(0-t) ([1]; plasma): 3550 ng·h/mL
AUC(0-inf) ([1]; plasma): 3630 ng·h/mL
half-life ([1]; plasma): 1.35 h
MRT ([1]; plasma): 2.55 h
Tmax ([1]; plasma): 0.5 h
Cmax ([1]; plasma): 1630 ng/mL

COc1ccc2nnn(CC(=O)[C@H]3[C@H]4C[C@H]4[C@H]4[C@@H]5CC[C@@H]6C[C@](C)(O)CC[C@@H]6[C@H]5CC[C@@]43C)c2c1 [Example 54A, 1-((2R,4aS,4bR,6aS,7S,7aS,8aR,8bR,8cR,10aR)-2-Hydroxy-2,6a-dimethyloctadecahydrocyclopropa[4,5]cyclopenta[1,2-a]phenanthren-7-yl)-2-(6-methoxy-1H-benzo[d][1,2,3]triazol-1-yl)ethan-1-one]
IC50 (GABA-A receptor): 11.8 nM

C[C@@]1(O)CC[C@H]2[C@H](CC[C@@H]3[C@@H]2CC[C@@]2(C)[C@H]3[C@@H]3C[C@@H]3[C@@H]2C(=O)Cn2ncc3ccncc32)C1 [Example 42, 1-((2R,4aS,4bR,6aS,7S,7aS,8aR,8bR,8cR,10aR)-2-hydroxy-2,6a-dimethyloctadecahydrocyclopropa[4,5]cyclopenta[1,2-a]phenanthren-7-yl)-2-(1H-pyrazolo[3,4-c]pyridin-1-yl)ethan-1-one]
IC50 (GABA-A receptor): 38.3 nM

C[C@@H]1C[C@H](C(=O)Cn2ccc(C(F)(F)F)n2)[C@@]2(C)CC[C@H]3[C@@H](CC[C@@H]4C[C@](C)(O)CC[C@@H]43)[C@H]12 [Example 131, 1-((3R,5R,8R,9R,10S,13S,14S,15R,17S)-3-Hydroxy-3,13,15-trimethylhexadecahydro-1H-cyclopenta[a]phenanthren-17-yl)-2-(3-(trifluoromethyl)-1H-pyrazol-1-yl)ethan-1-one]
IC50 (GABA-A receptor): 8 nM

C[C@@]1(O)CC[C@H]2[C@H](CC[C@@H]3[C@@H]2CC[C@@]2(C)[C@H]3[C@@H]3C[C@@H]3[C@@H]2C(=O)Cn2ccnc2)C1 [Example 98, 1-((2R,4aS,4bR,6aS,7S,7aS,8aR,8bR,8cR,10aR)-2-Hydroxy-2,6a-dimethyloctadecahydrocyclopropa[4,5]cyclopenta[1,2-a]phenanthren-7-yl)-2-(1H-imidazol-1-yl)ethan-1-one]
IC50 (GABA-A receptor): 37.8 nM

C[C@@H]1C[C@H](C(=O)Cn2cc(C(=O)N3CCC3)cn2)[C@@]2(C)CC[C@H]3[C@@H](CC[C@@H]4C[C@](C)(O)CC[C@@H]43)[C@H]12 [Example 133, 2-(4-(Azetidine-1-carbonyl)-1H-pyrazol-1-yl)-1-((3R,5R,8R,9R,10S,13S,14S,15R,17S)-3-hydroxy-3,13,15-trimethylhexadecahydro-1H-cyclopenta[a]phenanthren-17-yl)ethan-1-one]
IC50 (GABA-A receptor): 17.8 nM

C[C@@]1(O)CC[C@H]2[C@H](CC[C@@H]3[C@@H]2CC[C@@]2(C)[C@H]3[C@@H]3C[C@@H]3[C@@H]2C(=O)Cn2cc(Cl)cn2)C1 [Example 18, 2-(4-Chloro-1H-pyrazol-1-yl)-1-((2R,4aS,4bR,6aS,7S,7aS,8aR,8bR,8cR,10aR)-2-hydroxy-2,6a-dimethyloctadecahydrocyclopropa[4,5]cyclopenta[1,2-a]phenanthren-7-yl)ethan-1-one]
IC50 (GABA-A receptor): 6.4 nM

C[C@@]1(O)CC[C@H]2[C@H](CC[C@@H]3[C@@H]2CC[C@@]2(C)[C@H]3[C@H](C3CC3)C[C@@H]2C(=O)COc2cnc(C(F)(F)F)nc2)C1 [Example 151, 1-((3R,5R,8R,9R,10S,13S,14S,15S,17S)-15-Cyclopropyl-3-hydroxy-3,13-dimethylhexadecahydro-1H-cyclopenta[a]phenanthren-17-yl)-2-((2-(trifluoromethyl)pyrimidin-5-yl)oxy)ethan-1-one]
IC50 (GABA-A receptor): 26.2 nM

CC[C@@H]1C[C@H](C(=O)Cn2nnc(C)n2)[C@@]2(C)CC[C@H]3[C@@H](CC[C@@H]4C[C@](C)(O)CC[C@@H]43)[C@H]12 [Example 139, 1-((3R,5R,8R,9R,10S,13S,14S,15R,17S)-15-Ethyl-3-hydroxy-3,13-dimethylhexadecahydro-1H-cyclopenta[a]phenanthren-17-yl)-2-(5-methyl-2H-tetrazol-2-yl)ethan-1-one]
IC50 (GABA-A receptor): 27 nM

C[C@@H]1C[C@H](C(=O)Cn2cc(Cl)cn2)[C@@]2(C)CC[C@H]3[C@@H](CC[C@@H]4C[C@](C)(O)CC[C@@H]43)[C@H]12 [Example 91, 2-(4-Chloro-1H-pyrazol-1-yl)-1-((3R,5R,8R,9R,10S,13S,14S,15R,17S)-3-hydroxy-3,13,15-trimethylhexadecahydro-1H-cyclopenta[a]phenanthren-17-yl)ethan-1-one]
IC50 (GABA-A receptor): 9.6 nM

C[C@@]1(O)CC[C@H]2[C@H](CC[C@@H]3[C@@H]2CC[C@@]2(C)[C@H]3[C@@H]3C[C@@H]3[C@@H]2C(=O)Cn2nnc3cc(F)ccc32)C1 [Example 93A, 2-(5-Fluoro-1H-benzo[d][1,2,3]triazol-1-yl)-1-((2R,4aS,4bR,6aS,7S,7aS,8aR,8bR,8cR,10aR)-2-hydroxy-2,6a-dimethyloctadecahydrocyclopropa[4,5]cyclopenta[1,2-a]phenanthren-7-yl)ethan-1-one]
IC50 (GABA-A receptor): 3 nM

C[C@@]1(O)CC[C@H]2[C@H](CC[C@@H]3[C@@H]2CC[C@@]2(C)[C@H]3[C@@H]3C[C@@H]3[C@@H]2C(=O)Cn2cc(C(=O)N3CC(F)(F)C3)cn2)C1 [Example 52]
IC50 (GABA-A receptor): 65 nM

Cc1nnn(CC(=O)[C@H]2C[C@@H](C)[C@H]3[C@@H]4CC[C@@H]5C[C@](C)(O)CC[C@@H]5[C@H]4CC[C@@]32C)n1 [Example 62, 1-((3R,5R,8R,9R,10S,13S,14S,15R,17S)-3-Hydroxy-3,13,15-trimethylhexadecahydro-1H-cyclopenta[a]phenanthren-17-yl)-2-(5-methyl-2H-tetrazol-2-yl)ethan-1-one]
IC50 (GABA-A receptor): 5.4 nM

C[C@@]1(O)CC[C@H]2[C@H](CC[C@@H]3[C@@H]2CC[C@@]2(C)[C@H]3[C@@H]3C[C@@H]3[C@@H]2C(=O)Cn2nc(C#N)cc2C#N)C1 [Example 127, 1-(2-((2R,4aS,4bR,6aS,7S,7aS,8aR,8bR,8cR,10aR)-2-Hydroxy-2,6a-dimethyloctadecahydrocyclopropa[4,5]cyclopenta[1,2-a]phenanthren-7-yl)-2-oxoethyl)-1H-pyrazole-3,5-dicarbonitrile]
IC50 (GABA-A receptor): 6.1 nM
